Calls of active or inactive are those of the source. The rule behind the calls is not given here.

Test [1] is described as follows: viability protection against doxorubicin, MRP-1 line – cell-based, doxorubicin EC50 shift, dose response (AID 844).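 For viability: tested at 10 µM; plate controls were cells with vehicle for no effect and cells with cytotoxic drug for full effect.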 The following applies: MRP1 cells, doxorubicin viability shift, 10 uM compound; at 100 µM (top of the series).
The test system of test [2] is MRP1 cells, doxorubicin viability shift, 10 uM compound. The description is as above. The following applies: for EC50: measured here: doxorubicin EC50 with compound.

Turning to `COc1cccc(/C=N/NC(=O)c2cc(-c3cccn3C)n[nH]2)c1O`, in test [1], the viability (as a rule, the share of living cells, or the viability signal relative to a control) is 9.49% (inactive). The 50% effective concentration (EC50) (in general, the concentration that produces a half-maximal response) in test [2] is below 0.195 µM.

As for `Oc1ccc(-c2nc(-c3ccc(O)c(O)c3)cs2)cc1`, in test [1], the viability is 1.94% (inactive). The EC50 in test [2] was below 0.195 µM.

`CCOC(=O)c1c(CSC(=N)N)n(-c2ccc(C)cc2)c2cc(Br)c(OC(C)=O)cc12`: the viability in test [1] is 0.37% (inactive). For the same compound, the EC50 in test [2] is below 0.195 µM.

With `N=C(N)SCc1ccc(Cl)cc1Cl`, in test [1], the viability is 10.9% (inactive). The EC50 in test [2] was below 0.195 µM.

As for `Cc1cc(N/N=C/c2ccc(O)cc2O)nc(-n2nc(C)cc2C)n1`, the viability in test [1] is 15.5% (inactive). The EC50 in test [2] is below 0.195 µM.

For the compound `NC1C2CN(c3nc4c(cc3F)c(=O)c(C(=O)O)cn4-c3ccc(F)cc3F)CC12` (stereo not given), in test [1], the viability was 17.6% (inactive). For the same compound, in test [2], the EC50 was below 0.195 µM.

On to `COc1cc(C2Nc3cccc4cccc(c34)N2)cc(OC)c1O`, for which, in test [1], the viability is 1.31% (inactive). Moreover, in test [2], the half-maximal effective concentration (EC50) was below 0.195 µM.

Regarding `NS(=O)(=O)c1ccc(N=Nc2c(-c3ccccc3)[nH]n(-c3nc(-c4ccccc4)cs3)c2=O)cc1`, the viability in test [1] is 8.13% (inactive). In addition, the EC50 in test [2] was below 0.195 µM.

As for `CN(Cc1ccccc1)c1ncnc2c1cnn2-c1ccccc1`, in test [2], the fold increase in Dox EC50 was 0.54 (inactive) and the 50% effective concentration (EC50) is 2.94 µM.

Consider `COc1cccc(-c2csc(NC(=O)C3CC3)n2)c1`, for which, in test [2], the fold increase in Dox EC50 was 0.84 (inactive) and the EC50 came to 4.55 µM.

For the compound `O=C1c2ccsc2SCCN1Cc1c(Cl)cccc1Cl`, in test [2], the fold increase in Dox EC50 was 1.19 (inactive) and the EC50 was 6.43 µM.

Turning to `COC(=O)C1=C(C)NC(C)=C(C(=O)OC)C1c1ccccc1OCc1c(C)no[n+]1[O-]`, in test [2], the fold increase in Dox EC50 was 0.98 (inactive) and the EC50 worked out at 5.32 µM.

In the case of `CC/C(=N\NC(=O)C(N)=O)c1ccccc1O`, in test [2], the fold increase in Dox EC50 is 0.61 (inactive) and the EC50 was 3.29 µM.

Regarding `Cc1ccccc1Cn1nc(C)c(NC(=O)c2noc3c2CCc2ccccc2-3)c1C`, in test [2], the fold increase in Dox EC50 was 1.96 and the EC50 is 10.6 µM.

With `Cc1ccccc1Cn1ccc(NC(=O)c2onc(C)c2Cl)n1`, in test [2], the fold increase in Dox EC50 is 1.15 (inactive) and the EC50 is 6.24 µM.

(Values after PubChem BioAssay AID844 (SRMLSC, 2007).)
